Measured values taken from patent publication US20170290821A1 (priority 2014, published 2017).
Where a name gives a salt, the structure may show the parent alone. Read-outs that look alike come from different tables or passages of the source.

Tested on: influenza virus A/WSN RG#1-1 strains
Experiment: microbe, parasite or virus in culture
Type: cell-based
Conditions: for IC50: unidentified influenza virus, WSN, read-out: IC50 (50% virus replication inhibitory concentration)

Structure (SMILES): N#C/C(=C\c1ccc(O)c(O)c1)C(=O)NCc1ccccc1 [Compound J4, (E)-N-benzyl-2-cyano-3-(3,4-dihydroxyphenyl)acrylamide]
- IC50 (A549, 48 h): 31.6 µM

Structure (SMILES): O=C(Nc1c[nH]nc1-c1nc2cc(CN3CCOCC3)ccc2[nH]1)NC1CC1 [Compound J7, 1-cyclopropyl-3-(3-(5-(morpholinomethyl)-1H-benzo[d]imidazol-2-yl)-1H-pyrazol-4-yl) urea]
- IC50 (A549, 48 h): 3.16 µM

Structure (SMILES): N#CCNC(=O)c1ccc(-c2ccnc(Nc3ccc(N4CCOCC4)cc3)n2)cc1 [Compound J8, N-(cyanomethyl)-4-(2-(4-morpholinophenylamino)pyrimidin-4-yl)benzamide]
- IC50 (HEK293, 48 h): 31.6 µM

Structure (SMILES): CN1CCN(c2cccc(Nc3nc4c(-c5ccc(S(C)(=O)=O)cc5)cccn4n3)c2)CC1 [Compound J11]
- IC50 (50% virus replication inhibitory concentration): 3.50 log10, nM

Structure (SMILES): Fc1cc(-c2cccc3ncc(-c4cnn(C5CCNCC5)c4)nc23)cc(F)c1CN1CCOCC1 [Compound J13, 8-(3,5-difluoro-4-(morpholinomethyl)phenyl)-2-(1-(piperidin-4-yl)-1H-pyrazol-4-yl)qui noxaline]
- IC50 (50% virus replication inhibitory concentration): 3.17 log10, nM

Structure (SMILES): CC(C)N(CCC(=O)c1ccc2ccccc2c1)Cc1ccccc1 [Compound J15, 1-propanone, 3-[(1-methylethyl)(phenylmethyl)amino]-1-(2-naphthalenyl)-, hydrochloride (1:1)]
- IC50 (HEK293, 48 h): 0.316 µM

Structure (SMILES): O=C(Nc1nc2cccc(-c3ccc(CN4CCS(=O)(=O)CC4)cc3)n2n1)C1CC1 [Compound J19, N-[5-[4-[(1,1-dioxido-4-thiomorpholinyl)methyl]phenyl][1,2,4]triazolo[1,5-a]pyridin-2-yl]cyclopropanccarboxamidc]
- IC50 (A549, 48 h): 31.6 µM
- IC50 (HEK293, 48 h): 31.6 µM
- IC50 (MDCK, 48 h): 31.6 µM

Structure (SMILES): COc1cc2ncnc(Nc3ccc(O)cc3)c2cc1OC [Compound J20, 4-[(6,7-dimethoxy-4-quinazolinyl)amino]-phenol]
- IC50 (HEK293, 48 h): 31.6 µM

Structure (SMILES): Cl.Cl.Fc1cc(-c2cccc3ncc(-c4cnn(C5CCNCC5)c4)nc23)cc(F)c1CN1CCOCC1 [Compound J21, 4-[[2,6-difluoro-4-[3-(1-piperidin-4-ylpyrazol-4-yl)quinoxalin-5-yl]phenyl]methyl]morpholine; dihydrochloride]
- IC50 (50% virus replication inhibitory concentration): 3.50 log10, nM

Structure (SMILES): CN1C/C=C/CCOc2cccc(c2)-c2ccnc(n2)Nc2cccc(c2)C1 [Compound J23, 20-oxa-5,7,14,27-tetraazatetracyclo[19.3.1.12,6.18, 12]heptacosa-1(25),2,4,6(27),8,10,12(26),16,21,23-decane,14-methyl-]
- IC50 (A549, 48 h): 0.0316 µM
- IC50 (HEK293, 48 h): 0.0316 µM
- IC50 (MDCK, 48 h): 0.0316 µM

Structure (SMILES): CCC[C@H](NC(=O)/C(C#N)=C/c1cccc(Br)n1)c1ccccc1 [Compound J25, (2E)-3-(6-bromo-2-pyridinyl)-2-cyano-N-[1S-phenylbutyl]-2-propenamide]
- IC50 (50% virus replication inhibitory concentration): 2.50 log10, nM
